In PubChem BioAssay AID248 (DTP/NCI, 2004):
Where “and” joins values, the source holds several entries; their conditions need not be identical. Identical values can stand only once. Inconclusive results and toxic doses are left out. Rule as the data show it: active = T/C of 150% or more; inactive = T/C below 125%.

System: L1210 leukemia ip in BDF1 mice, survival T/C
Assay: NCI In Vivo Anticancer Drug Screen. Data for tumor model L1210 Leukemia (intraperitoneal) in B6D2F1 (BDF1) mice
Details: endpoint: mean survival time, higher = longer survival
Method in brief: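 Value reflects the ratio of survival in compound-treated mice to survival in vehicle-treated controls, with both groups carrying the same transplanted tumor.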

[1] = dose: 100.0 mg/kg/injection, schedule: Q01DX009 (ip), vehicle: Klucel (hydroxypropylcellulose) (HPC)
[2] = dose: 200.0 mg/kg/injection, schedule: Q01DX009 (ip), vehicle: Klucel (hydroxypropylcellulose) (HPC)
[3] = dose: 100.0 mg/kg/injection, schedule: Q01DX009 (ip), vehicle: saline
[4] = dose: 200.0 mg/kg/injection, schedule: Q01DX009 (ip), vehicle: saline
[5] = dose: 100.0 mg/kg/injection, schedule: Q04DX003 (ip), vehicle: saline
[6] = dose: 200.0 mg/kg/injection, schedule: Q04DX003 (ip), vehicle: saline
[7] = dose: 400.0 mg/kg/injection, schedule: Q04DX003 (ip), vehicle: saline
[8] = dose: 75.0 mg/kg/injection, schedule: Q01DX001 (ip), vehicle: saline
[9] = dose: 150.0 mg/kg/injection, schedule: Q01DX001 (ip), vehicle: saline
[10] = dose: 100.0 mg/kg/injection, schedule: Q01DX001 (ip), vehicle: saline
[11] = dose: 50.0 mg/kg/injection, schedule: Q01DX009 (ip), vehicle: saline

Measured: T/C

NC(N)=NCCN=C(N)N
inactive: dose: 15.0 mg/kg/injection, schedule: Q01DX Z (oral), vehicle: saline 97 % of control | dose: 30.0 mg/kg/injection, schedule: Q01DX Z (oral), vehicle: saline 103 % of control | dose: 60.0 mg/kg/injection, schedule: Q01DX Z (oral), vehicle: saline 101 % of control | dose: 120.0 mg/kg/injection, schedule: Q01DX Z (oral), vehicle: saline 95 % of control

O=C(Nc1ccc(Cl)c(Cl)c1)Oc1ccc2ccccc2c1
inactive: [1] 90 % of control | dose: 100.0 mg/kg/injection, schedule: Q04DX003 (ip), vehicle: Klucel (hydroxypropylcellulose) (HPC) 104 % of control | [2] 101 % of control | dose: 200.0 mg/kg/injection, schedule: Q04DX003 (ip), vehicle: Klucel (hydroxypropylcellulose) (HPC) 90 % of control | dose: 400.0 mg/kg/injection, schedule: Q01DX009 (ip), vehicle: Klucel (hydroxypropylcellulose) (HPC) 95 % of control | dose: 400.0 mg/kg/injection, schedule: Q04DX003 (ip), vehicle: Klucel (hydroxypropylcellulose) (HPC) 90 % of control

Cc1nc(N)[nH]c(=O)c1CCCNS(=O)(=O)c1ccccc1
inactive: dose: 50.0 mg/kg/injection, schedule: Q01DX001 (ip), vehicle: Klucel (hydroxypropylcellulose) (HPC) 105 % of control | dose: 100.0 mg/kg/injection, schedule: Q01DX001 (ip), vehicle: Klucel (hydroxypropylcellulose) (HPC) 94 % of control | dose: 200.0 mg/kg/injection, schedule: Q01DX001 (ip), vehicle: Klucel (hydroxypropylcellulose) (HPC) 90 % of control

CCOP(=O)(OCC)N1C(C)C1c1ccccc1 (stereo not given)
inactive: dose: 25.0 mg/kg/injection, schedule: Q04DX003 (sc), vehicle: carboxymethylcellulose (CMC) 100 % of control | dose: 50.0 mg/kg/injection, schedule: Q04DX003 (sc), vehicle: carboxymethylcellulose (CMC) 104 % of control | dose: 100.0 mg/kg/injection, schedule: Q04DX003 (sc), vehicle: carboxymethylcellulose (CMC) 112 % of control

CCOC(=O)C1C(C(=O)c2ccc(C)cc2)C2(Cl)C(Cl)=C(Cl)C1(Cl)C2(Cl)Cl (stereo not given)
inactive: [3] 96 % of control | [4] 91 % of control | dose: 400.0 mg/kg/injection, schedule: Q01DX009 (ip), vehicle: saline 98 % of control

c1ccc(C2=C(c3ccccc3)SC(c3ccccc3)=C(c3ccccc3)S2)cc1
inactive: [5] 102 % of control | [6] 98 % of control | [7] 104 % of control

CCCCCCCCCC[As]1c2ccccc2Nc2ccccc21
inactive: dose: 50.0 mg/kg/injection, schedule: Q04DX002 (ip), vehicle: saline with Tween-80 92 % of control | dose: 100.0 mg/kg/injection, schedule: Q04DX002 (ip), vehicle: saline with Tween-80 89 % of control | dose: 200.0 mg/kg/injection, schedule: Q04DX002 (ip), vehicle: saline with Tween-80 96 % of control

S=C(NCc1ccc(Cl)cc1Cl)Nc1ccccc1
inactive: dose: 25.0 mg/kg/injection, schedule: Q01DX009 (ip), vehicle: Klucel (hydroxypropylcellulose) (HPC) 101 % of control | dose: 50.0 mg/kg/injection, schedule: Q01DX009 (ip), vehicle: Klucel (hydroxypropylcellulose) (HPC) 98 % of control | [1] 103 % of control and 109 % of control | [2] 88 % of control

[Cl][Gd]([Cl])[Cl]
inactive: [5] 94 % of control | [6] 115 % of control | [7] 95 % of control

Nc1nc(N)c(-c2ccc(Cl)cc2)c(CN2C(=O)c3ccccc3C2=O)n1
inactive: dose: 75.0 mg/kg/injection, schedule: Q01DX001 (ip), vehicle: Klucel (hydroxypropylcellulose) (HPC) 97 % of control | dose: 150.0 mg/kg/injection, schedule: Q01DX001 (ip), vehicle: Klucel (hydroxypropylcellulose) (HPC) 92 % of control | dose: 300.0 mg/kg/injection, schedule: Q01DX001 (ip), vehicle: Klucel (hydroxypropylcellulose) (HPC) 92 % of control

CC(C)C(NC(=O)OCc1ccccc1)C(=O)O (stereo not given)
inactive: dose: 9.37 mg/kg/injection, schedule: Q01DX009 (ip), vehicle: saline 98 % of control | dose: 18.75 mg/kg/injection, schedule: Q01DX009 (ip), vehicle: saline 93 % of control | dose: 37.5 mg/kg/injection, schedule: Q01DX009 (ip), vehicle: saline 100 % of control | dose: 37.5 mg/kg/injection, schedule: Q04DX003 (ip), vehicle: saline 103 % of control | [8] 96 % of control | dose: 75.0 mg/kg/injection, schedule: Q04DX003 (ip), vehicle: saline 101 % of control | [9] 102 % of control

CSc1ccc(OC(=O)Oc2ccc(SC)c(C)c2)cc1C
inactive: dose: 100.0 mg/kg/injection, schedule: Q01DX001 (ip), vehicle: carboxymethylcellulose (CMC) 92 % of control | dose: 200.0 mg/kg/injection, schedule: Q01DX001 (ip), vehicle: carboxymethylcellulose (CMC) 92 % of control | dose: 400.0 mg/kg/injection, schedule: Q01DX001 (ip), vehicle: carboxymethylcellulose (CMC) 97 % of control

COc1cc(N(CCCl)CCCl)ccc1C=Nc1ccc(-n2ccnc2)cc1
inactive: dose: 68.8 mg/kg/injection, schedule: Q04DX002 (ip), vehicle: Klucel (hydroxypropylcellulose) (HPC) 98 % of control | dose: 137.5 mg/kg/injection, schedule: Q04DX002 (ip), vehicle: Klucel (hydroxypropylcellulose) (HPC) 98 % of control | dose: 275.0 mg/kg/injection, schedule: Q04DX002 (ip), vehicle: Klucel (hydroxypropylcellulose) (HPC) 102 % of control

CCCCCCCCC(=O)NCCCNC(=O)CCCCCCCC
inactive: dose: 30.0 mg/kg/injection, schedule: Q01DX001 (ip), vehicle: saline 96 % of control | [10] 91 % of control | dose: 300.0 mg/kg/injection, schedule: Q01DX001 (ip), vehicle: saline 93 % of control

C1CCC(C2CC2)CC1
inactive: [11] 97 % of control | [3] 94 % of control | [4] 94 % of control

O=C(Nc1cc(C(F)(F)F)cc(C(F)(F)F)c1)Nc1ccc(Oc2ccccc2Cl)c(S(=O)(=O)O)c1
inactive: dose: 100.0 mg/kg/injection, schedule: Q04DX003 (ip), vehicle: saline sonified 117 % of control | dose: 200.0 mg/kg/injection, schedule: Q04DX003 (ip), vehicle: saline sonified 115 % of control | dose: 400.0 mg/kg/injection, schedule: Q04DX003 (ip), vehicle: saline sonified 121 % of control

CNc1nc(N(C)C)nc(N(C)C)n1
inactive: [8] 92 % of control | [9] 94 % of control

CCN(CC)C(=O)Cn1cc(F)c(NC(C)=O)nc1=O
inactive: [5] 97 % of control | [6] 101 % of control | [7] 101 % of control

OCCN1CCN(Cc2cccc3ccccc23)CC1
inactive: dose: 25.0 mg/kg/injection, schedule: Q01DX009 (ip), vehicle: saline 112 % of control | dose: 25.0 mg/kg/injection, schedule: Q04DX003 (ip), vehicle: saline 101 % of control | [11] 98 % of control | dose: 50.0 mg/kg/injection, schedule: Q04DX003 (ip), vehicle: saline 102 % of control | [10] 103 % of control | [3] 102 % of control | [5] 98 % of control

COc1cc2c(c(-c3c(O)c(OC)cc4c3CC[n+]3cc5c(OC)c(OC)ccc5cc3-4)c1O)CC[n+]1cc3c(OC)c(OC)ccc3cc1-2
inactive: dose: 50.0 mg/kg/injection, schedule: Q04DX002 (ip), vehicle: Klucel (hydroxypropylcellulose) (HPC) 100 % of control | dose: 100.0 mg/kg/injection, schedule: Q04DX002 (ip), vehicle: Klucel (hydroxypropylcellulose) (HPC) 108 % of control | dose: 200.0 mg/kg/injection, schedule: Q04DX002 (ip), vehicle: Klucel (hydroxypropylcellulose) (HPC) 100 % of control

O=S(=O)(F)c1ccc(Cl)cc1
inactive: dose: 100.0 mg/kg/injection, schedule: Q04DX003 (ip), vehicle: saline with Tween-80 101 % of control | dose: 200.0 mg/kg/injection, schedule: Q04DX003 (ip), vehicle: saline with Tween-80 89 % of control

CCC[CH2][Sn]1([CH2]CCC)[O]OC(c2ccc(C(=O)OCC)cc2)[O]1 (stereo not given)
inactive: dose: 6.25 mg/kg/injection, schedule: Q04DX002 (ip), vehicle: other 102 % of control
